Results reported in the supplement of paper PMC10307832.

Columns and labels:
Test in all cases: relative viability (nuclei count vs DMSO), 5 days (fraction); higher = more cells survive
[1] = test system: 201T
Procedure, shortened: (§1)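 One day after seeding in 1536-well plates, lung cancer cell lines were dosed by pin tool. Dosing was either single-drug or a fixed anchor-drug dose plus five library-drug doses (not always all listed) in √10 steps. After 5 days, nuclei were stained in one fix-and-stain step and counted on 4× images, and relative viability is the nuclei count of treated wells over that of vehicle wells, given as the median of duplicate plates.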

[2] = test system: BEN
Procedure, shortened: as §1

[3] = test system: EMC-BAC-2
Procedure, shortened: as §1

[4] = test system: HARA
Procedure, shortened: as §1

[5] = test system: HCC-44
Procedure, shortened: as §1

[6] = test system: LCLC-103H
Procedure, shortened: as §1

[7] = test system: LOU-NH91
Procedure, shortened: as §1

[8] = test system: NCI-H1395
Procedure, shortened: as §1

[9] = test system: NCI-H1993
Procedure, shortened: as §1

[10] = test system: NCI-H2023
Procedure, shortened: as §1

[11] = test system: NCI-H2087
Procedure, shortened: as §1

[12] = test system: NCI-H2126
Procedure, shortened: as §1

[13] = test system: NCI-H2347
Procedure, shortened: as §1

[14] = test system: NCI-H23
Procedure, shortened: as §1

[15] = test system: NCI-H3122
Procedure, shortened: as §1

[16] = test system: NCI-H441
Procedure, shortened: as §1

[17] = test system: NCI-H522
Procedure, shortened: as §1

[18] = test system: NCI-H596
Procedure, shortened: as §1

[19] = test system: NCI-H647
Procedure, shortened: as §1

[20] = test system: NCI-H650
Procedure, shortened: as §1

[21] = test system: NCI-H838
Procedure, shortened: as §1

`O=c1cc(N2CCOCC2)oc2c(-c3cccc4c3sc3ccccc34)cccc12` + Nc1nc2[nH]cc(CCc3ccc(C(=O)N[C@@H](CCC(=O)O)C(=O)O)cc3)c2c(=O)[nH]1 [Pemetrexed] (partner 0.2 µM) was tested, and the relative viability ([1]; first compound 0.01 µM) was 0.326, the relative viability ([1]; first compound 0.03162 µM) was 0.316 and the relative viability ([1]; first compound 0.1 µM) was 0.338. For the same compound, the relative viability ([1]; first compound 0.3162 µM) was 0.397, the relative viability ([1]; first compound 1 µM) was 0.359 and the relative viability ([2]; first compound 0.01 µM) was 0.79. It also gave a relative viability ([2]; first compound 0.03162 µM) of 0.746, a relative viability ([2]; first compound 0.1 µM) of 0.653 and a relative viability ([2]; first compound 0.3162 µM) of 0.89. The relative viability ([2]; first compound 1 µM) was 0.705, the relative viability ([3]; first compound 0.01 µM) was 0.459 and the relative viability ([3]; first compound 0.03162 µM) was 0.43. For the same compound, the relative viability ([3]; first compound 0.1 µM) was 0.457, the relative viability ([3]; first compound 0.3162 µM) was 0.477 and the relative viability ([3]; first compound 1 µM) was 0.456. For the same compound, the relative viability ([4]; first compound 0.01 µM) was 0.217, the relative viability ([4]; first compound 0.03162 µM) was 0.271 and the relative viability ([4]; first compound 0.1 µM) was 0.225. The relative viability ([4]; first compound 0.3162 µM) was 0.238, the relative viability ([4]; first compound 1 µM) was 0.262 and the relative viability ([5]; first compound 0.01 µM) was 0.667. It also gave a relative viability ([5]; first compound 0.03162 µM) of 0.643, a relative viability ([5]; first compound 0.1 µM) of 0.587 and a relative viability ([5]; first compound 0.3162 µM) of 0.591. The relative viability ([5]; first compound 1 µM) was 0.664, the relative viability ([6]; first compound 0.01 µM) was 0.44 and the relative viability ([6]; first compound 0.03162 µM) was 0.503. The relative viability ([6]; first compound 0.1 µM) was 0.485, the relative viability ([6]; first compound 0.3162 µM) was 0.465 and the relative viability ([6]; first compound 1 µM) was 0.457. For the same compound, the relative viability ([7]; first compound 0.01 µM) was 0.39, the relative viability ([7]; first compound 0.03162 µM) was 0.384 and the relative viability ([7]; first compound 0.1 µM) was 0.377. It also gave a relative viability ([7]; first compound 0.3162 µM) of 0.386, a relative viability ([7]; first compound 1 µM) of 0.425 and a relative viability ([8]; first compound 0.03162 µM) of 0.908. For the same compound, the relative viability ([8]; first compound 0.1 µM) was 0.909, the relative viability ([8]; first compound 0.3162 µM) was 1.01 and the relative viability ([8]; first compound 1 µM) was 0.855. The relative viability ([9]; first compound 0.01 µM) was 0.624, the relative viability ([9]; first compound 0.03162 µM) was 0.524 and the relative viability ([9]; first compound 0.1 µM) was 0.621. The relative viability ([9]; first compound 0.3162 µM) was 0.54, the relative viability ([9]; first compound 1 µM) was 0.553 and the relative viability ([10]; first compound 0.01 µM) was 0.284. It also gave a relative viability ([10]; first compound 0.03162 µM) of 0.276, a relative viability ([10]; first compound 0.1 µM) of 0.227 and a relative viability ([10]; first compound 0.3162 µM) of 0.249. It also gave a relative viability ([10]; first compound 1 µM) of 0.161, a relative viability ([11]; first compound 0.01 µM) of 0.665 and a relative viability ([11]; first compound 0.03162 µM) of 0.633. For the same compound, the relative viability ([11]; first compound 0.1 µM) was 0.693, the relative viability ([11]; first compound 0.3162 µM) was 0.662 and the relative viability ([11]; first compound 1 µM) was 0.651. For the same compound, the relative viability ([12]; first compound 0.01 µM) was 0.713, the relative viability ([12]; first compound 0.03162 µM) was 0.72 and the relative viability ([12]; first compound 0.1 µM) was 0.636. It also gave a relative viability ([12]; first compound 0.3162 µM) of 0.668, a relative viability ([12]; first compound 1 µM) of 0.674 and a relative viability ([13]; first compound 0.01 µM) of 0.458. It also gave a relative viability ([13]; first compound 0.03162 µM) of 0.472, a relative viability ([13]; first compound 0.1 µM) of 0.415 and a relative viability ([13]; first compound 0.3162 µM) of 0.433. It also gave a relative viability ([13]; first compound 1 µM) of 0.44, a relative viability ([14]; first compound 0.01 µM) of 0.732 and a relative viability ([14]; first compound 0.03162 µM) of 0.761. It also gave a relative viability ([14]; first compound 0.3162 µM) of 0.659, a relative viability ([14]; first compound 1 µM) of 0.609 and a relative viability ([15]; first compound 0.01 µM) of 0.207. It also gave a relative viability ([15]; first compound 0.03162 µM) of 0.206, a relative viability ([15]; first compound 0.1 µM) of 0.197 and a relative viability ([15]; first compound 0.3162 µM) of 0.21. It also gave a relative viability ([15]; first compound 1 µM) of 0.205, a relative viability ([16]; first compound 0.01 µM) of 0.256 and a relative viability ([16]; first compound 0.03162 µM) of 0.272. The relative viability ([16]; first compound 0.1 µM) was 0.299, the relative viability ([16]; first compound 0.3162 µM) was 0.276 and the relative viability ([16]; first compound 1 µM) was 0.235. It also gave a relative viability ([17]; first compound 0.01 µM) of 1.11, a relative viability ([17]; first compound 0.03162 µM) of 1.02 and a relative viability ([17]; first compound 0.1 µM) of 1.08. For the same compound, the relative viability ([17]; first compound 0.3162 µM) was 1.13, the relative viability ([17]; first compound 1 µM) was 0.831 and the relative viability ([18]; first compound 0.01 µM) was 0.452. For the same compound, the relative viability ([18]; first compound 0.03162 µM) was 0.521, the relative viability ([18]; first compound 0.1 µM) was 0.528 and the relative viability ([18]; first compound 0.3162 µM) was 0.517. For the same compound, the relative viability ([18]; first compound 1 µM) was 0.482, the relative viability ([19]; first compound 0.01 µM) was 0.187 and the relative viability ([19]; first compound 0.03162 µM) was 0.183. The relative viability ([19]; first compound 0.1 µM) was 0.184, the relative viability ([19]; first compound 0.3162 µM) was 0.209 and the relative viability ([19]; first compound 1 µM) was 0.178. For the same compound, the relative viability ([20]; first compound 0.01 µM) was 0.764, the relative viability ([20]; first compound 0.03162 µM) was 1.08 and the relative viability ([20]; first compound 0.3162 µM) was 0.85. The relative viability ([20]; first compound 1 µM) was 0.786, the relative viability ([21]; first compound 0.01 µM) was 0.255 and the relative viability ([21]; first compound 0.03162 µM) was 0.237. For the same compound, the relative viability ([21]; first compound 0.1 µM) was 0.241, the relative viability ([21]; first compound 0.3162 µM) was 0.227 and the relative viability ([21]; first compound 1 µM) was 0.26.
